Starred links: 1 amine or outer side, 2 acyl side, 3 side chain; linkers in the order of their positions; H or OH if unused. Non-standard residues stand in square brackets, D forms with d. Residues, ends and D or L forms follow the SMILES beside them. *: point of attachment. dBip = N[C@H](Cc1ccc(-c2ccccc2)cc1)C(=O)O; Oic = O=C(O)[C@@H]1C[C@@H]2CCCC[C@@H]2N1; Phe(4-Cl) = N[C@@H](Cc1ccc(Cl)cc1)C(=O)O; dPhe(4-Cl) = N[C@H](Cc1ccc(Cl)cc1)C(=O)O; Phe(4-I) = N[C@@H](Cc1ccc(I)cc1)C(=O)O; γGlu = O=C(O)[C@H](CCC(=O)[*:2])N[*:1]; d(β3hF) = N[C@@H](CC(=O)O)Cc1ccccc1; dIgl = N[C@@H](C(=O)O)C1Cc2ccccc2C1; NMeR = CN[C@@H](CCCNC(=N)N)C(=O)O; Palmitoyl = CCCCCCCCCCCCCCCC(=O)*; Tridecanoyl = CCCCCCCCCCCCC(=O)*; X1 = O=C(CN(C1CCNCC1)[*:1])[*:2]; hArg = N=C(N)NCCCC[C@H](N)C(=O)O; Cha = N[C@@H](CC1CCCCC1)C(=O)O; NMeL = CN[C@@H](CC(C)C)C(=O)O; β3hN = NC(=O)C[C@H](N)CC(=O)O; Tle = CC(C)(C)[C@H](N)C(=O)O; β3hP = O=C(O)C[C@@H]1CCCN1; Nle = CCCC[C@H](N)C(=O)O; Orn = NCCC[C@H](N)C(=O)O; Pra = C#CC[C@H](N)C(=O)O; Deg = CCC(N)(CC)C(=O)O; AEEA = NCCOCCOCC(=O)O
These molecules were tested against T1, rat APJ receptor (Rattus norvegicus, UniProt Q9JHG3) (assay: [35S] GTPγS assay, rat APJ receptor). Conditions: Table 16, read-out: EC50 Rat APJ Receptor.
T1 construct: expressed in transfected cells
T1 sequence (Q9JHG3 1-377): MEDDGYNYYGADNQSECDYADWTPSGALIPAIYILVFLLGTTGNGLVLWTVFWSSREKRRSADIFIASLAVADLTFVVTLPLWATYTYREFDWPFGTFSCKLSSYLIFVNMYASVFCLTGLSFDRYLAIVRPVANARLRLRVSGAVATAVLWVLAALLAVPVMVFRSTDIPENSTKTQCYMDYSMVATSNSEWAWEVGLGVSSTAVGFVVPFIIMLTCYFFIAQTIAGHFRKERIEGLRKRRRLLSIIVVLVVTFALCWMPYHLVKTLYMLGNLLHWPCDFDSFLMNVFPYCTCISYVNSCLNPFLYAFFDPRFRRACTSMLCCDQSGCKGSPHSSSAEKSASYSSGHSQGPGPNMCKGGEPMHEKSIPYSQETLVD
Type: biochemical
Experimental: The membranes were incubated with modified peptides in the assay buffer. […] Bound [^35S] GTPγS was separated from free radiolabel by filtration. The filter bound radioactivity was determined by liquid scintillation counting.

Compound | EC50
CCCCCCCCCCCCC(=O)N[C@@H](CCC(=O)NCCOCCOCC(=O)NCCOCCOCC(=O)N[C@@H](CCC(N)=O)C(=O)N[C@@H](CCCNC(=N)N)C(=O)N1CCC[C@H]1C(=O)N[C@@H](CCC(N)=O)C(=O)N[C@@H](CC(C)C)C(=O)N[C@@H](CO)C(=O)N[C@@H](Cc1c[nH]cn1)C(=O)N[C@@H](CCCCN)C(=O)NCC(=O)N1CCC[C@H]1C(=O)N[C@@H](CCCC)C(=O)N1CCC[C@H]1C(=O)N[C@@H](Cc1ccc(Cl)cc1)C(=O)O)C(=O)O [compound 465] ({Tridecanoyl-γGlu-AEEA-AEEA}-QRPQLSHKGP[Nle]P[Phe(4-Cl)]-OH) | 0.175 nM
CCCCCCCCCCCCC(=O)N[C@@H](CCC(=O)NCCOCCOCC(=O)NCCOCCOCC(=O)N[C@H](CCC(N)=O)C(=O)N[C@@H](CCCCNC(=N)N)C(=O)N1CCC[C@H]1C(=O)N[C@H](CCCNC(=N)N)C(=O)N[C@H](C(=O)N[C@@H](CO)C(=O)N[C@@H](Cc1c[nH]cn1)C(=O)N[C@@H](CCCCN)C(=O)NCC(=O)N1[C@H](C(=O)N[C@@H](CCCC)C(=O)N2CCC[C@H]2C(=O)N[C@@H](Cc2ccc(Cl)cc2)C(=O)O)C[C@@H]2CCCC[C@@H]21)C(C)(C)C)C(=O)O [compound 433] ({Tridecanoyl-γGlu-AEEA-AEEA}-[dQ][hArg]P[dR][Tle]SHKG[Oic][Nle]P[Phe(4-Cl)]-OH) | 19.8 nM
CCCCCCCCCCCCC(=O)N[C@@H](CCC(=O)NCCOCCOCC(=O)NCCOCCOCC(=O)N[C@H](CCC(N)=O)C(=O)N[C@@H](CCCCNC(=N)N)C(=O)N1CCC[C@H]1C(=O)N[C@H](CCCNC(=N)N)C(=O)N[C@@H](CC1CCCCC1)C(=O)N[C@@H](CO)C(=O)N[C@@H](Cc1c[nH]cn1)C(=O)N[C@@H](CCCCN)C(=O)NCC(=O)N1[C@H](C(=O)N[C@@H](CCCC)C(=O)N2CCC[C@H]2C(=O)N[C@@H](C(=O)O)C2Cc3ccccc3C2)C[C@@H]2CCCC[C@@H]21)C(=O)O [compound 431] ({Tridecanoyl-γGlu-AEEA-AEEA}-[dQ][hArg]P[dR][Cha]SHKG[Oic][Nle]P[dIgl]-OH) | 25 nM
C#CC[C@H](NC(=O)[C@H](CC(C)C)NC(=O)[C@H](CCCNC(=N)N)N(C)C(=O)[C@@H]1CCCN1C(=O)[C@H](CCCNC(=N)N)NC(=O)[C@H](CCC(N)=O)NC(=O)COCCOCCNC(=O)COCCOCCNC(=O)CC[C@H](NC(=O)CCCCCCCCCCCC)C(=O)O)C(=O)N[C@@H](Cc1c[nH]cn1)C(=O)N[C@@H](CCCCN)C(=O)NCC(=O)N1CCC[C@H]1C(=O)N[C@@H](CCCC)C(=O)N1CCC[C@H]1C(=O)N[C@@H](Cc1ccc(Cl)cc1)C(=O)O [compound 450] ({Tridecanoyl-γGlu-AEEA-AEEA}-QRP[NMeR]L[Pra]HKGP[Nle]P[Phe(4-Cl)]-OH) | 0.313 nM
CCCCCCCCCCCCC(=O)N[C@@H](CCC(=O)NCCOCCOCC(=O)NCCOCCOCC(=O)N[C@H](CCC(N)=O)C(=O)N[C@@H](CCCCNC(=N)N)C(=O)NC(CC)(CC)C(=O)N[C@H](CCCNC(=N)N)C(=O)N[C@@H](CC1CCCCC1)C(=O)N[C@@H](CO)C(=O)N[C@@H](Cc1c[nH]cn1)C(=O)N[C@@H](CCCCN)C(=O)NCC(=O)N1[C@H](C(=O)N[C@@H](CCCC)C(=O)N2CCC[C@H]2C(=O)N[C@@H](Cc2ccc(Cl)cc2)C(=O)O)C[C@@H]2CCCC[C@@H]21)C(=O)O [compound 455] ({Tridecanoyl-γGlu-AEEA-AEEA}-[dQ][hArg][Deg][dR][Cha]SHKG[Oic][Nle]P[Phe(4-Cl)]-OH) | 10.3 nM
CCCCCCCCCCCCC(=O)N[C@@H](CCC(=O)NCCOCCOCC(=O)NCCOCCOCC(=O)N[C@@H](CCC(N)=O)C(=O)N[C@@H](CCCCNC(=N)N)C(=O)N1CCC[C@H]1C(=O)N(C)[C@@H](CCCNC(=N)N)C(=O)N[C@@](C)(CC(C)C)C(=O)N[C@@H](CO)C(=O)N[C@@H](Cc1c[nH]cn1)C(=O)N[C@@H](CCCCN)C(=O)NCC(=O)N1CCC[C@H]1C(=O)N[C@@H](CCCC)C(=O)N1CCC[C@H]1C(=O)N[C@@H](Cc1ccc(Cl)cc1)C(=O)O)C(=O)O [compound 460] | 0.0627 nM

Same assay, conditions: rat APJ receptor, read-out: EC50 Rat APJ Receptor

Compound | EC50
CCCCCCCCCC(=O)N[C@@H](CCC(=O)NCCOCCOCC(=O)NCCOCCOCC(=O)N[C@@H](CCC(N)=O)C(=O)N[C@@H](CCCNC(=N)N)C(=O)N1CCC[C@H]1C(=O)N(C)[C@@H](CCCNC(=N)N)C(=O)N[C@@H](CC(C)C)C(=O)N[C@@H](CO)C(=O)N[C@@H](Cc1c[nH]cn1)C(=O)N[C@@H](CCCCN)C(=O)NCC(=O)N1CCC[C@H]1C(=O)N[C@@H](CCCC)C(=O)N1CCC[C@H]1C(=O)N[C@@H](Cc1ccc(Cl)cc1)C(=O)O)C(=O)O [compound 494] | 0.147 nM
CCCCCCCCCCCCC(=O)N[C@@H](CCC(=O)NCCOCCOCC(=O)NCCOCCOCC(=O)N[C@@H](CC(N)=O)CC(=O)N[C@@H](CCCCNC(=N)N)C(=O)N1CCC[C@H]1C(=O)N(C)[C@@H](CCCNC(=N)N)C(=O)N[C@@H](CC1CCCCC1)C(=O)N[C@@H](CO)C(=O)N[C@@H](Cc1c[nH]cn1)C(=O)N[C@@H](CCCCN)C(=O)NCC(=O)N1[C@H](C(=O)N[C@@H](CCCC)C(=O)N2CCC[C@H]2C(=O)N[C@H](Cc2ccc(Cl)cc2)C(=O)O)C[C@@H]2CCCC[C@@H]21)C(=O)O [compound 299] ({Tridecanoyl-γGlu-AEEA-AEEA}-[β3hN][hArg]P[NMeR][Cha]SHKG[Oic][Nle]P[dPhe(4-Cl)]-OH) | 14.6 nM
CCCCCCCCCCCCC(=O)N[C@@H](CCC(=O)NCCOCCOCC(=O)NCCOCCOCC(=O)N[C@@H](CCCCNC(=N)N)C(=O)N[C@H](CCCNC(=N)N)C(=O)N[C@@H](CCC(N)=O)C(=O)N[C@@H](CCCC)C(=O)N1CCC[C@H]1C(=O)N[C@H](CCCNC(=N)N)C(=O)N(C)[C@@H](CC(C)C)C(=O)N[C@@H](C)C(=O)N[C@@H](C)C(=O)N[C@@H](CCCCN)C(=O)NCC(=O)N1[C@H](C(=O)N[C@@H](Cc2ccc(I)cc2)C(=O)N2CCC[C@H]2C(=O)N[C@H](Cc2ccc(-c3ccccc3)cc2)C(=O)O)C[C@@H]2CCCC[C@@H]21)C(=O)O [compound 334] ({Tridecanoyl-γGlu-AEEA-AEEA}-[hArg][dR]Q[Nle]P[dR][NMeL]AAKG[Oic][Phe(4-I)]P[dBip]-OH) | 44.7 nM
CCCCCCCCCCCCC(=O)N[C@@H](CCC(=O)NCCOCCOCC(=O)NCCOCCOCC(=O)NCCOCCOCC(=O)NCCOCCOCC(=O)NCCOCCOCC(=O)NCCOCCOCC(=O)N[C@@H](CCC(N)=O)C(=O)N[C@@H](CCCNC(=N)N)C(=O)N1CCC[C@H]1C(=O)N(C)[C@@H](CCCNC(=N)N)C(=O)N[C@@H](CC(C)C)C(=O)N[C@@H](CO)C(=O)N[C@@H](Cc1c[nH]cn1)C(=O)N[C@@H](CCCCN)C(=O)NCC(=O)N1CCC[C@H]1C(=O)N[C@@H](CCCC)C(=O)N1CCC[C@H]1C(=O)N[C@@H](Cc1ccc(Cl)cc1)C(=O)O)C(=O)O [compound 398] | 0.116 nM
CCCCCCCCCCCCCCCC(=O)N[C@@H](CCC(=O)NCCOCCOCC(=O)NCCOCCOCC(=O)N[C@H](CCC(N)=O)C(=O)N[C@@H](CCCNC(=N)N)C(=O)N1CCC[C@H]1C(=O)N(C)[C@@H](CCCNC(=N)N)C(=O)N[C@@H](CC1CCCCC1)C(=O)N[C@@H](CO)C(=O)N[C@@H](Cc1c[nH]cn1)C(=O)N(CC(=O)NCC(=O)N1[C@H](C(=O)N[C@@H](CCCC)C(=O)N2CCC[C@H]2CC(=O)N[C@@H](CC(=O)O)Cc2ccccc2)C[C@@H]2CCCC[C@@H]21)C1CCNCC1)C(=O)O [compound 633] ({Palmitoyl-γGlu-AEEA-AEEA}-[dQ]RP[NMeR][Cha]SH[X1]G[Oic][Nle][β3hP][d(β3hF)]-OH) | > 4170 nM
CCCC[C@H](NC(=O)[C@@H]1CCCN1C(=O)CNC(=O)[C@H](CCCCN)NC(=O)[C@H](Cc1c[nH]cn1)NC(=O)[C@H](CO)NC(=O)[C@H](CC(C)C)N(C)C(=O)[C@H](CCCNC(=N)N)NC(=O)[C@@H]1CCCN1C(=O)[C@H](CCCNC(=N)N)NC(=O)[C@H](CCC(N)=O)NC(=O)[C@H](CCCNC(=N)N)NC(C)=O)C(=O)N1CCC[C@H]1C(=O)N[C@@H](Cc1ccc(Cl)cc1)C(=O)O [compound 64] (Ac-RQRPR[NMeL]SHKGP[Nle]P[Phe(4-Cl)]-OH) | 0.411 nM
CCCCCC(=O)N[C@@H](CCC(=O)NCCOCCOCC(=O)NCCOCCOCC(=O)N[C@@H](CCC(N)=O)C(=O)N[C@@H](CCCNC(=N)N)C(=O)N1CCC[C@H]1C(=O)N(C)[C@@H](CCCNC(=N)N)C(=O)N[C@@H](CC(C)C)C(=O)N[C@@H](CO)C(=O)N[C@@H](Cc1c[nH]cn1)C(=O)N[C@@H](CCCCN)C(=O)NCC(=O)N1CCC[C@H]1C(=O)N[C@@H](CCCC)C(=O)N1CCC[C@H]1C(=O)N[C@@H](Cc1ccc(Cl)cc1)C(=O)O)C(=O)O [compound 492] | 0.147 nM

Same assay, conditions: read-out: EC50 Rat APJ Receptor

Compound | EC50
CCCC[C@H](NC(=O)[C@@H]1CCCN1C(=O)CNC(=O)[C@H](CCCCN)NC(=O)[C@H](Cc1c[nH]cn1)NC(=O)[C@H](CO)NC(=O)[C@H](CC1CCCCC1)NC(=O)[C@H](CCCCNC(=N)N)NC(=O)[C@@H]1CCCN1C(=O)[C@H](CCCNC(=N)N)NC(=O)[C@H](CCC(N)=O)NC(=O)[C@H](CCCCNC(=N)N)NC(=O)[C@H](CCCCNC(=N)N)NC(=O)[C@H](Cc1ccccc1)NC(=O)[C@H](CCCN)NC(C)=O)C(=O)N[C@@H](Cc1ccc(Cl)cc1)C(=O)O [compound 48] (Ac-[Orn]F[hArg][hArg]QRP[hArg][Cha]SHKGP[Nle][Phe(4-Cl)]-OH) | 0.486 nM

— US11807693B2 (priority 2014, dated 2023)
